Experimental data taken from patent publication US11427596B2, “Metal-free solvent-free synthesis of fused-pyrido heterocycles and biomedical applications” (Indian Institute of Technology Indore, priority 2019, dated 2022).

Tested on: Mycobacterium bovis
Type: cell-based
Details: virulent/opportunistic multidrug resistant Mycobacterium bovis (BCG), incubation 48 hrs, n=3

Cc1ccc(-c2nc(COCc3cn(CCN4C(=O)C(=O)c5ccccc54)nn3)cc3oc(C)cc23)o1 [compound 26, 1-(2-(4-(((2-Methyl-4-(5-methylfuran-2-yl)furo[3,2-c]pyridin-6-yl)methoxy)methyl)-1H-1,2,3-triazol-1-yl)ethyl)indoline-2,3-dione]
concentration range in which active (antituberculosis activity): 70 to 100 µM
